Assay [1] concerns the target T1, SpNanB (Streptococcus pneumoniae serotype 4, UniProt Q54727, E68D/K536E/K577E/N393D/S59P). As to the kind of experiment: Sialidase inhibition assay (Example 7). It counts as biochemical. The conditions noted are these: pH 6, read-out: Percentage inhibition (%) against SpNanB.
For assay [2], the target named is T1, SpNanB. As to the kind of experiment: Hydrolysis of 2,7-anhydro-sialic acids by SpNanB. The conditions noted are these: SpNanB (1.0 mg/mL); 37° C. for 24 h.
Assay [3] has as its target VcSialidase (Vibrio cholerae serotype O1, UniProt P0C6E9). As to the kind of experiment: Sialidase inhibition assay (Example 7). Format: biochemical. The note with it: pH 5.5, read-out: Percentage inhibition (%) against VcSialidase.
For assay [4], the target named is SpNanC (Streptococcus pneumoniae, UniProt A0A0H2UQE4). Briefly: Sialidase inhibition assay (Example 7). The conditions noted are these: pH 6.5, read-out: Percentage inhibition (%) against SpNanC.
Chain of SpNanC (A0A0H2UQE4 entry or part of it): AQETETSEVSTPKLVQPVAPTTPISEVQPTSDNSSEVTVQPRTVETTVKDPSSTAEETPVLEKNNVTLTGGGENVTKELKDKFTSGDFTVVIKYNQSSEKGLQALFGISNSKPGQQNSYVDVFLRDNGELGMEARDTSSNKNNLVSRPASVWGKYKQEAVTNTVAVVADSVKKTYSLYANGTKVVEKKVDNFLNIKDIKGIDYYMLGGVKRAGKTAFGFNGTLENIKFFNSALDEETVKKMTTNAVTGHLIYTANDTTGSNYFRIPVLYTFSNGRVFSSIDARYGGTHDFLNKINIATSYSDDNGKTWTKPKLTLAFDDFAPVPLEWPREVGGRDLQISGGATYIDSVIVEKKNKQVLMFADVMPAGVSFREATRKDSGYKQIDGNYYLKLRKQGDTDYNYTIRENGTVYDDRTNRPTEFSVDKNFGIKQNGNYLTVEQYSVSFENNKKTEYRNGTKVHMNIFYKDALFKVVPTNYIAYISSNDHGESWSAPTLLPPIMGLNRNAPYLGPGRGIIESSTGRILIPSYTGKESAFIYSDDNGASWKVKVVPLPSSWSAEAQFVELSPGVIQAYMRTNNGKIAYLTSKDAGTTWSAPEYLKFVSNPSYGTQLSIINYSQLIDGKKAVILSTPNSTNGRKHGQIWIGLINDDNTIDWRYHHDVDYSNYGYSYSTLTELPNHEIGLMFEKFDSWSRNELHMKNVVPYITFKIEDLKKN
In assay [5] the target is BiNanH2 (Bifidobacterium longum subsp. infantis, UniProt A0ACD7UU12). Briefly: Sialidase inhibition assay (Example 7). Format: biochemical. The conditions noted are these: pH 5, read-out: Percentage inhibition (%) against BiNanH2.
Chain of BiNanH2 (A0ACD7UU12 entry or part of it): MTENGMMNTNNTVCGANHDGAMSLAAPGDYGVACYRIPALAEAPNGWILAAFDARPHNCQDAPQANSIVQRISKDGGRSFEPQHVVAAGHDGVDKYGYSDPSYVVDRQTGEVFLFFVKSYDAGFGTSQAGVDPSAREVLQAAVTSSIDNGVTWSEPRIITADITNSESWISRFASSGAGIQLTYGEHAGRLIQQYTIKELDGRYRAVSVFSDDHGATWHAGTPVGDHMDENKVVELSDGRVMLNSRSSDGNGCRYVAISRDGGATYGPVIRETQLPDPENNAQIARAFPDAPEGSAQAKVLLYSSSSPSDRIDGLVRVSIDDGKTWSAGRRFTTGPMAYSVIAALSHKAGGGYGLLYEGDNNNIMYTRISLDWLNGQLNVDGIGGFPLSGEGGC
Assay [6] deals with T2, AuSialidase (Paenarthrobacter ureafaciens, UniProt Q5W7Q2).
T2 sequence (Q5W7Q2 39-990): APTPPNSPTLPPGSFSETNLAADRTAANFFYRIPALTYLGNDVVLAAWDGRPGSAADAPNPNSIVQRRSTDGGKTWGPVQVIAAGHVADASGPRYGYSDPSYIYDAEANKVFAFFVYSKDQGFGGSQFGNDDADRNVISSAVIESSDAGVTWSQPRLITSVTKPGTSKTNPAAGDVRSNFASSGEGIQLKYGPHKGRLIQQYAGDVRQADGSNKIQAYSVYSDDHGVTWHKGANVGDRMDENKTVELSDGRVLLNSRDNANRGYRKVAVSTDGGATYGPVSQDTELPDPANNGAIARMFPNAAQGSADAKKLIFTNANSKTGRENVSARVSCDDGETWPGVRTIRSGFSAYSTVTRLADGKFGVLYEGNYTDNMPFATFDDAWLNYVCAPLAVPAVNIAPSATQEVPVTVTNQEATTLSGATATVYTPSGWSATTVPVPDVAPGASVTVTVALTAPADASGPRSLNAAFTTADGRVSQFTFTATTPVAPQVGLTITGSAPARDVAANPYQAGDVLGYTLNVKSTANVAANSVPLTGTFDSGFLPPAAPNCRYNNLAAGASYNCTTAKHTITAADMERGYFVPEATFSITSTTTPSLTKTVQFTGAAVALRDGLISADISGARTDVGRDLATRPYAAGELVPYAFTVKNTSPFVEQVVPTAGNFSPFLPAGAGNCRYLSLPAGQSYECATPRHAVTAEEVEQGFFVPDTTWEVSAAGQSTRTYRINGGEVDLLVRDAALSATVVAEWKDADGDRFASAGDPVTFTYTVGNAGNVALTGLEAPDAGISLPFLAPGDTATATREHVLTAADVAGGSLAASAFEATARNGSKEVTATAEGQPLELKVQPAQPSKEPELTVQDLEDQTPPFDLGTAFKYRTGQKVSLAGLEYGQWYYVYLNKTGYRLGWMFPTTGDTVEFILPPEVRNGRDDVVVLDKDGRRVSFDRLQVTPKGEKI
Briefly: Sialidase inhibition assay (Example 7). The conditions noted are these: 1 mM of each inhibitor; substrate Neu5Acα2-3GalβpNP 0.3 mM; pH 5.5; read-out: Percentage inhibition (%) against AuSialidase. Format: biochemical, Arthrobacter ureafaciens.

Assay [7] concerns the target PmST1 (Pasteurella multocida, UniProt Q15KI8). Briefly: Sialidase inhibition assay (Example 7). The conditions noted are these: 1 mM of each inhibitor; substrate Neu5Acα2-3GalβpNP 0.3 mM; CMP 0.4 mM; pH 5.5; read-out: Percentage inhibition (%) against PmST1. It counts as biochemical.
For assay [8], the system named is CpNanI. Format: biochemical, Clostridium perfringens. The note with it: 1 mM of each inhibitor; substrate Neu5Acα2-3GalβpNP 0.3 mM; pH 5.0.
In assay [9] the target is SpNanA (Streptococcus pneumoniae, UniProt P62575). As to the kind of experiment: Sialidase inhibition assay (Example 7). Format: biochemical. The note with it: pH 6, read-out: Percentage inhibition (%) against SpNanA.
Chain of SpNanA (P62575 54-1006): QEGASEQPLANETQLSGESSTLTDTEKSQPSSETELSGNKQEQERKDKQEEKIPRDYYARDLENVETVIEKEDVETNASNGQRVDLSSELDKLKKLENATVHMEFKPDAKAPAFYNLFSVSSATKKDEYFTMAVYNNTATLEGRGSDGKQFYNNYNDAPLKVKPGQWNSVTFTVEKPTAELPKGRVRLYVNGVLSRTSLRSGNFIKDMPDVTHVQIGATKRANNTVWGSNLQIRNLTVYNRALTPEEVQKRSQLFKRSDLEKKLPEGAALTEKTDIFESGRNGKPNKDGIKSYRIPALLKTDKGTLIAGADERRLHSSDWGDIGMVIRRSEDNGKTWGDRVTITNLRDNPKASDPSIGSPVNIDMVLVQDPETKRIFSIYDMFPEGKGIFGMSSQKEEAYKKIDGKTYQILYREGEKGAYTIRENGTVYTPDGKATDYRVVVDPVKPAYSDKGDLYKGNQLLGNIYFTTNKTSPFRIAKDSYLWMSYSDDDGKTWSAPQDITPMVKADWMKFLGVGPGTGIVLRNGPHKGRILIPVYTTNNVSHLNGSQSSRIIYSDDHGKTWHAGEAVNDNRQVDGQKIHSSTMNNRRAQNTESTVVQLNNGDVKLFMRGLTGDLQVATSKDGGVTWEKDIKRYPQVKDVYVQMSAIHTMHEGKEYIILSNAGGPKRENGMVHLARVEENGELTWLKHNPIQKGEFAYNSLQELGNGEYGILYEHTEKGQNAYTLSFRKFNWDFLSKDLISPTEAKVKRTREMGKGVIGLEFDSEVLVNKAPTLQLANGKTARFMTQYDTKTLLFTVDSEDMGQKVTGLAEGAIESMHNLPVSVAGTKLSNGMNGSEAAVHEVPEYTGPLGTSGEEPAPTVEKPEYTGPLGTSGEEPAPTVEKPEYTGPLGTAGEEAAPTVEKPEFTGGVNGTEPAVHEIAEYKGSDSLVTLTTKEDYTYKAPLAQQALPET
Assay [10] deals with hNEU2 (Homo sapiens, UniProt Q9Y3R4). As to the kind of experiment: Sialidase inhibition assay (Example 7). It counts as biochemical. The note with it: 1 mM of each inhibitor; substrate Neu5Acα2-3GalβpNP 0.3 mM; pH 5.0; read-out: Percentage inhibition (%) against hNEU2.
Chain of hNEU2 (Q9Y3R4 whole entry): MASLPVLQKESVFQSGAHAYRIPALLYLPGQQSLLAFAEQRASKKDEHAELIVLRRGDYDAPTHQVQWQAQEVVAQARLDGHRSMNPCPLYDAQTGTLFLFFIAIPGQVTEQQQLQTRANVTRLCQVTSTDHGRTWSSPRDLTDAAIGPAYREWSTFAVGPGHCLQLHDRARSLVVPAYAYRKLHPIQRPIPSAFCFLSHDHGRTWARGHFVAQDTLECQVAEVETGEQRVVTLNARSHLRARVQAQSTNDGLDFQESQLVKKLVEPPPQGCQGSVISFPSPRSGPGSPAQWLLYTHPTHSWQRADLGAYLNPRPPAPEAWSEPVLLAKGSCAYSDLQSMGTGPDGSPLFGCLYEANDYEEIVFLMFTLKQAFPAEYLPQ

The inhibition is the drop in the measured response relative to a control, in per cent.

T1 sequence (Q54727 30-697 S59P/E68D/N393D/K536E/K577E): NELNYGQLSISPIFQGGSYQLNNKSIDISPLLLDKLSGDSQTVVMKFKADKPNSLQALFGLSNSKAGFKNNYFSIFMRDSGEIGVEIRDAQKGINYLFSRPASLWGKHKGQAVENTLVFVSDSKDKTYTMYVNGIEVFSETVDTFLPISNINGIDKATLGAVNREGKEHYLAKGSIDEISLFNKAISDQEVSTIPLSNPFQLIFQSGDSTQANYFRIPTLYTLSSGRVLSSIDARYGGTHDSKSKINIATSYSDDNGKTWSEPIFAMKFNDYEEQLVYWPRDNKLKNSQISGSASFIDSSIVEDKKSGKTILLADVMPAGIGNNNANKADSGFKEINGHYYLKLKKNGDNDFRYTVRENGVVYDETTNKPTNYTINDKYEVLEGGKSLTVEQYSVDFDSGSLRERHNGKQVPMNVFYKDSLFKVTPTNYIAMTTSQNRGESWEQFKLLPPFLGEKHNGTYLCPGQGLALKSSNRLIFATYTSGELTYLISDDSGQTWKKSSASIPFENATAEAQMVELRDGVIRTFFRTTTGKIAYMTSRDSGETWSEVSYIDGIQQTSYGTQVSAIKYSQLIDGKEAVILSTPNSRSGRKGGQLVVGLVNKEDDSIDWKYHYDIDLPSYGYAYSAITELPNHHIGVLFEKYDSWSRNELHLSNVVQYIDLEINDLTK
Chain of VcSialidase (P0C6E9 25-781): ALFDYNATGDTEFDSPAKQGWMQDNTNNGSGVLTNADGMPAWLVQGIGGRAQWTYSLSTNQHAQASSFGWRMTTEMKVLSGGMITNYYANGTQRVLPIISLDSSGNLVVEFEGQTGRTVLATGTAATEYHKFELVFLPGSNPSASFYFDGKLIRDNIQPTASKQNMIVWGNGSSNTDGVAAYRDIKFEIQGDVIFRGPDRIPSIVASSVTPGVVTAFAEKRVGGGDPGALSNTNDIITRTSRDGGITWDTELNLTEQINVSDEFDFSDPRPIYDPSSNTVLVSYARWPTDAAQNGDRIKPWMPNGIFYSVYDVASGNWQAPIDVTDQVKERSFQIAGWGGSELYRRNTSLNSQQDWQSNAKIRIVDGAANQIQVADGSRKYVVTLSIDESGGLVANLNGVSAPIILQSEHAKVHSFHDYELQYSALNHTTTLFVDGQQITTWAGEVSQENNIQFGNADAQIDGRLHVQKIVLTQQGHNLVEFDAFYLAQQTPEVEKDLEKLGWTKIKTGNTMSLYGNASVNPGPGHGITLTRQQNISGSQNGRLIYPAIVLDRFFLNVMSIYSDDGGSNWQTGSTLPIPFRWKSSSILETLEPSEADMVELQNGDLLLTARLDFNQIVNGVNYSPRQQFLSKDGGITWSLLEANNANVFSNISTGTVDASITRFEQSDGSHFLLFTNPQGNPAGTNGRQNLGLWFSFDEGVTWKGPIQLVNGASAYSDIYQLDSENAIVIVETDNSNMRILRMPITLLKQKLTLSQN
Chain of PmST1 (Q15KI8 entry or part of it): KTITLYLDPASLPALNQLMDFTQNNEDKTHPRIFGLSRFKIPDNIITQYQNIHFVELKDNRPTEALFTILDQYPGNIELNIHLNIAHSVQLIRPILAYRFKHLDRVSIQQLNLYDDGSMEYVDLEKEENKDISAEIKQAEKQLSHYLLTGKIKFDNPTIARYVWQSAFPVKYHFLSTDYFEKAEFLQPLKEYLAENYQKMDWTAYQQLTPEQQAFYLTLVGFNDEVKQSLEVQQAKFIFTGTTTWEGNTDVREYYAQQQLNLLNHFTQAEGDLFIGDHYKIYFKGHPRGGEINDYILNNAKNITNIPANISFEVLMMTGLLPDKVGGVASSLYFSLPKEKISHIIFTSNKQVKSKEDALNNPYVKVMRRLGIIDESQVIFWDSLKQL

Consider `CC(=O)N[C@H]1[C@H]2O[C@@](C(=O)O)(C[C@@H]1O)O[C@@H]2[C@H](O)CO` [2-1, 5-Acetamido-2,7-anhydro-3,5-dideoxy-α-D-glycero-D-galacto-non-2-ulopyranosonic acid], for which the inhibition at 1000 µM was 30 ± 1.7% in assay [1]; 22.7 ± 1.2% in [3]; 3 ± 1.9% in assay [4]; 6.6 ± 1.8% in assay [5]; 49.4 ± 1.3% in assay [6]; 10.2 ± 2.8% in assay [7]. In addition, the values for the inhibition at 1000 µM in [9] and in assay [10] were 36.4 ± 0.1% and 4.6 ± 1.1%, respectively. Moreover, the “Conversion to Neu5Ac by SpNanB, estimated yield based on TLC” value in [2] was 80%. In addition, the “Percentage inhibition (%) against CpNanI” value in assay [8] worked out at 26.7 ± 3.7%.

Source of the values: patent publication US11325936B2, “Sialidase inhibitors and preparation thereof” (The Regents of the University of California, priority 2017, dated 2022).
